Assay results from US20250041429A1, “COMPOUND HAVING BTK PROTEIN DEGRADATION ACTIVITY, AND MEDICAL USES THEREOF” (UBIX THERAPEUTICS, INC., priority 2021, published 2025).

Target: T1, BTK protein (Homo sapiens, UniProt Q06187)
T1 construct: endogenous in cells; host or cells: TMD-8 cells
Experiment: Measurement of BTK protein degradation ability in TMD-8 cells (Western blotting)
Assay type: cell-based
Details: harvested after 24 hours
Method in brief: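 BTK levels were measured by immunoblotting of equal-protein RIPA lysates, normalized to GAPDH or β-actin, with chemiluminescent or infrared detection. Lysates came from TMD-8 cells exposed to compound for 24 h at final concentrations of 0.1, 1, 10 μM or 0.0001–0.1 μM, against a DMSO control.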

T1 sequence (Q06187 whole entry): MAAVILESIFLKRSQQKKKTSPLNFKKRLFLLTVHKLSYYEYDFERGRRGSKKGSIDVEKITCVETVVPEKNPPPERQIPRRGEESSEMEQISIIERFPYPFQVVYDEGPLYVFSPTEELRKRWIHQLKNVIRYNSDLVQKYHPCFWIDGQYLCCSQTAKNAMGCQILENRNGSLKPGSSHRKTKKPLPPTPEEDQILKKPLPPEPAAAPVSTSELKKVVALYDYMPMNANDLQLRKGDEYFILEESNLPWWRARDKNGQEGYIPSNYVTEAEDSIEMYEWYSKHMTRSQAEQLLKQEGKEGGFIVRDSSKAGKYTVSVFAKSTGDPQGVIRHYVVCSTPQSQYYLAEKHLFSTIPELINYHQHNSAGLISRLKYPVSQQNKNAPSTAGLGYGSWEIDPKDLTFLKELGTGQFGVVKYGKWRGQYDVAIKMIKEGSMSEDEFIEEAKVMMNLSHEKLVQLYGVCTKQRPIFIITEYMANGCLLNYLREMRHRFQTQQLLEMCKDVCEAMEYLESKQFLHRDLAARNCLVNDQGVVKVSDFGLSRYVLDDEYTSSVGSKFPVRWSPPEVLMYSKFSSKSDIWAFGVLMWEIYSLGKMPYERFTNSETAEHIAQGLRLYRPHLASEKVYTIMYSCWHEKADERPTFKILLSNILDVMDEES

## CC(C)(C)n1cc(C(=O)NCc2ccc(-c3ccnc(Nc4ccc(N5CCC(CN6CCC(c7ccc(NC8CCC(=O)NC8=O)cc7)CC6)CC5)cc4)n3)cc2CO)nn1 (stereo not drawn) [Example 143, 1-(tert-butyl)-N-(4-(2-((4-(4-((4-(4-((2,6-dioxopiperidin-3-yl)amino)phenyl)piperidin-1-yl)methyl)piperidin-1-yl)phenyl)amino)pyrimidin-4-yl)-2-(hydroxymethyl)benzyl)-1H-1,2,3-triazole-4-carbamide]
Compound 1 nM
  BTK degradation (%) 1 nM: 74.0%
Compound 10 nM
  BTK degradation (%) 10 nM: 99.5%
Compound 100 nM
  BTK degradation (%) 100 nM: 100.0%
